Measurements: patent US11382925B2, “Agent for treating retinal disease” (CARNA HEALTH SUPPORT LTD., priority 2017, dated 2022)

Key:
SGLT2 = target: T1, SGLT2 (Homo sapiens, UniProt P31639); conditions: cited from earlier work
T1 sequence (P31639 1-672): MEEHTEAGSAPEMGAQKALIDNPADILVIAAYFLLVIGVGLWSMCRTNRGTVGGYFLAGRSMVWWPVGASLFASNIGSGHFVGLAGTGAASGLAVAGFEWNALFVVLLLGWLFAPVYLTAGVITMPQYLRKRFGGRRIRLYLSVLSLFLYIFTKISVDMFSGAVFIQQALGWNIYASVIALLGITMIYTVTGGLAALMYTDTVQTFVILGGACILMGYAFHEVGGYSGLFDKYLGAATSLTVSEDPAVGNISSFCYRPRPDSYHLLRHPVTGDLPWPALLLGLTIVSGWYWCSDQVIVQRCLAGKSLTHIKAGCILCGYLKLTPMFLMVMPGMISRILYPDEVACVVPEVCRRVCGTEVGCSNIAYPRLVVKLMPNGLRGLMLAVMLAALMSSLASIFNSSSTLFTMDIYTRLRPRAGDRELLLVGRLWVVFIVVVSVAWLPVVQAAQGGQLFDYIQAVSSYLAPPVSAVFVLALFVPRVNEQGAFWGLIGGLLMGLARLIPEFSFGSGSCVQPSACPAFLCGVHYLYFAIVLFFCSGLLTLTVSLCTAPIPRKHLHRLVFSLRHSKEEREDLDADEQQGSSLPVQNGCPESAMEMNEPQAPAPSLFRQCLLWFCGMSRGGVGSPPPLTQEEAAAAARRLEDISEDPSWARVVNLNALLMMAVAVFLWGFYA

[1] = authorized minimum dosage amount; compared with canagliflozin; cited from earlier work
[2] = test system: retina of an age-related maculopathy mouse model; test: Hematoxylin-Eosin staining of retina, thickness of outer granular layer, in age-related maculopathy mouse model; format: in vivo, BALB/c mice; conditions: vs non-administered AMD mouse
Procedure: FIG. 4 is a graph showing the thickness of outer granular layer (including visual cells) of the retina of an age-related maculopathy mouse model in numeral terms. […] “***” represents P<0.005 vs control mouse, “#” and “##” each represents P<0.05 vs Ipragliflozin non-administered AMD mouse, and P<0.01 vs Ipragliflozin non-administered AMD mouse, respectively.
(§1) To BALB/c mice, light irradiation (8000 lux, 10 hours) was performed, and then the mice were bred for one week. The existing SGLT2 inhibitor agent ipragliflozin was orally administered in an amount of 0.03 mg/kg/day and 0.1 mg/kg/day for four days including the day of light irradiation. The effects on body weight and blood sugar were confirmed. These models are widely used as age-related maculopathy models.

[3] = Preliminary test: body weight, blood sugar and urinal sugar in light-irradiated age-related maculopathy mouse model; format: in vivo, BALB/c mice; conditions: AMD mouse; for change in body weight as compared to when not administering ipragliflozin: light irradiation 8000 lux 10 hours, bred one week
Procedure: as §1
FIGS. 1 and 2 show the results of body weight and blood sugar levels when administering the existing SGLT2 inhibitor agent ipragliflozin at 0.03 mg/kg/day and 0.1 mg/kg/day.

[4] = 0.03 mg/kg/day orally for four days
[5] = 0.1 mg/kg/day orally for four days

## CCOc1ccc(Cc2cc([C@@H]3S[C@H](CO)[C@@H](O)[C@H](O)[C@H]3O)c(OC)cc2C)cc1 [luseogliflozin hydrate]
SGLT2
  IC50 level showing the inhibition activity, compared with canagliflozin: similar
[1]
  maximum blood concentration (Cmax) in the minimum dosage amount, relative to that of canagliflozin: approximately 1/10

## CCc1ccc(Cc2ccc3c(c2)[C@]2(OC3)O[C@H](CO)[C@@H](O)[C@H](O)[C@H]2O)cc1 [tofogliflozin hydrates, tofogliflozin hydrate]
SGLT2
  IC50 level showing the inhibition activity, compared with canagliflozin: similar
[1]
  maximum blood concentration (Cmax) in the minimum dosage amount, relative to that of canagliflozin: approximately 1/10

## O=C(O)[C@@H]1CCCN1.OC[C@H]1O[C@@H](c2ccc(F)c(Cc3cc4ccccc4s3)c2)[C@H](O)[C@@H](O)[C@@H]1O [ipragliflozin L-proline]
SGLT2
  IC50 level showing the inhibition activity, compared with canagliflozin: similar
[1]
  maximum blood concentration (Cmax) in the minimum dosage amount, relative to that of canagliflozin: similar

## OC[C@H]1O[C@@H](c2ccc(Cl)c(Cc3ccc(O[C@H]4CCOC4)cc3)c2)[C@H](O)[C@@H](O)[C@@H]1O [empagliflozin]
SGLT2
  IC50 level showing the inhibition activity, compared with canagliflozin: similar
[1]
  maximum blood concentration (Cmax) in the minimum dosage amount, relative to that of canagliflozin: approximately 1/10

## OC[C@H]1O[C@@H](c2ccc(F)c(Cc3cc4ccccc4s3)c2)[C@H](O)[C@@H](O)[C@@H]1O [ipragliflozin]
[2]; 0.03 mg/kg/day orally
  thinning of membrane shown in retina of AMD mouse (thickness of outer granular layer): significantly ameliorated
[2]; 0.1 mg/kg/day orally
  thinning of membrane shown in retina of AMD mouse (thickness of outer granular layer): significantly ameliorated
[3]; 0.03 mg/kg/day and 0.1 mg/kg/day orally for four days
  change in urinal sugar as compared to when not administering ipragliflozin: no change was observed
[3]; [4]
  change in blood sugar as compared to when not administering ipragliflozin: no change was observed
  change in body weight as compared to when not administering ipragliflozin: no change was observed
[3]; [5]
  change in blood sugar as compared to when not administering ipragliflozin: no change was observed
  change in body weight as compared to when not administering ipragliflozin: no change was observed
